The test system of one data set is U-937. Put plainly: Antiproliferative activity against human U937 cells after 24 hrs by MTT assay. Format: functional. Conditions: U-937, 24 h. On the technique in general: Formazan colour is commonly taken as a measure of viable cells.
Another data set concerns A375P. Put plainly: Antiproliferative activity against human A375P cells after 24 hrs by MTT assay. It is filed as functional, cell-based.
A short description of data set [1]: Cytotoxicity against human HS27 cells after 24 hrs by MTT assay. It is filed as cell-based.

Each structure is given as a SMILES string. The source made the active and inactive calls. No cut-off for these calls is given here.

`Cc1ccc(NC(=O)Nc2ccccc2F)cc1NC(=O)c1cnoc1C`: the GI50 (as a rule, the concentration at which growth is held to half of that of the control) with U-937 was over 30 µM. Also, in the data set on A375P, the result was inactive. The GI50 at 24 h in data set [1] was over 30 µM.
For `Cc1cc(NC(=O)Nc2cccc(Cl)c2)ccc1NC(=O)c1cnoc1C`, the GI50 in the data set with U-937 is over 30 µM. Further, the outcome in the data set on A375P was inactive. Further, the concentration for 50% growth inhibition (GI50) at 24 h in data set [1] is over 30 µM.
In the data set with U-937, `Cc1ccc(NC(=O)Cc2ccc(-c3ccccc3)cc2)cc1NC(=O)c1cnoc1C` showed a GI50 of over 30 µM. Moreover, the outcome in the data set with A375P was inactive. Moreover, the GI50 at 24 h in data set [1] was over 30 µM.
`Cc1ccc(NC(=O)Nc2cccc(C(F)(F)F)c2)cc1NC(=O)c1cnoc1C`: the concentration for 50% growth inhibition (GI50) in the data set on U-937 is over 30 µM. In addition, in the data set on A375P, the outcome was inactive. The molecule further displayed a GI50 at 24 h in data set [1] of over 30 µM.
Turning to `CNC(=O)c1cc(Oc2ccc(NC(=O)Nc3ccc(Cl)c(C(F)(F)F)c3)cc2)ccn1` [SORAFENIB], the result in the data set on A375P was inactive. For the same molecule, in data set [1], the GI50 at 24 h is over 30 µM.
As for `Cc1cc(NC(=O)Nc2cccc(C(F)(F)F)c2)ccc1NC(=O)c1cnoc1C`, in the data set with U-937, the GI50 was over 30 µM. In addition, in the data set on A375P, the result was inactive. Also, in data set [1], the GI50 at 24 h was over 30 µM.
With `Cc1ccc(NC(=O)c2ccccc2Sc2ccccc2C#N)cc1NC(=O)c1cnoc1C`, the GI50 in the data set on U-937 was over 30 µM. Also, in the data set on A375P, the result was inactive. The molecule further registered a GI50 at 24 h in data set [1] of over 30 µM.
Regarding `Cc1cc(NC(=O)c2cc(N3CCN(C)CC3)cc(C(F)(F)F)c2)ccc1NC(=O)c1cnoc1C`, in the data set with U-937, the concentration for 50% growth inhibition (GI50) is over 30 µM. Besides, in the data set on A375P, the outcome was inactive. Moreover, the GI50 at 24 h in data set [1] is over 30 µM.
As for `Cc1ccc(NC(=O)C2(C)CCc3c(C)c(O)c(C)c(C)c3O2)cc1NC(=O)c1cnoc1C` (centres undefined), the concentration for 50% growth inhibition (GI50) in the data set with U-937 is over 30 µM. Also, the outcome in the data set on A375P was inactive. Besides, the GI50 at 24 h in data set [1] was over 30 µM.
Molecule `Cc1cc(NC(=O)Nc2ccc(Cl)c(Cl)c2)ccc1NC(=O)c1cnoc1C` showed a GI50 in the data set on U-937 of over 30 µM. Also, in the data set on A375P, the result was inactive. In data set [1], the GI50 at 24 h is over 30 µM.
Consider `Cc1ccc(NC(=O)Nc2ccc(Cl)cc2)cc1NC(=O)c1cnoc1C`, for which the GI50 in the data set on U-937 is over 30 µM. The result in the data set with A375P was inactive. Moreover, in data set [1], the GI50 at 24 h is over 30 µM.
In the case of `Cc1ccc(NC(=O)c2ccc(Cl)c(C(F)(F)F)c2)cc1NC(=O)c1cnoc1C`, the GI50 with U-937 is over 30 µM. Moreover, the result in the data set with A375P was inactive. The same molecule registered a GI50 at 24 h in data set [1] of over 30 µM.
In the data set with U-937, `Cc1ccc(NC(=O)c2cnn(-c3ccccc3)c2C(F)(F)F)cc1NC(=O)c1cnoc1C` registered a GI50 of 0.139 µM. The result in the data set on A375P was inactive. Further, in data set [1], the GI50 at 24 h was over 30 µM.
The matching figures for `Cc1cn(-c2cc(C(=O)Nc3ccc(C)c(NC(=O)c4cnoc4C)c3)cc(C(F)(F)F)c2)cn1`: 0.049 µM, “inactive” and over 30 µM.
The matching figures for `Cc1ccc(NC(=O)Nc2ccc(Cl)c(Cl)c2)cc1NC(=O)c1cnoc1C`: 1.89 µM, “inactive” and over 30 µM.
On to `Cc1ccc(NC(=O)c2cc(-n3cncc3C)cc(C(F)(F)F)c2)cc1NC(=O)c1cnoc1C`, for which, in the data set on U-937, it took 0.026 µM to inhibit growth by half (GI50). The result with A375P was inactive. The GI50 at 24 h in data set [1] was over 30 µM.
In the same order, the values of `CCCS(=O)(=O)Nc1ccc(NC(=O)c2cnoc2C)c(C)c1` are over 30 µM, “inactive” and over 30 µM.
In the same order, the values of `Cc1ccc(NC(=O)c2ccc(N3CCOCC3)c(C(F)(F)F)c2)cc1NC(=O)c1cnoc1C` are 0.465 µM, “inactive” and over 30 µM.
On to `Cc1ccc(NC(=O)Nc2cccc(Cl)c2)cc1NC(=O)c1cnoc1C`, for which the concentration for 50% growth inhibition (GI50) with U-937 was over 30 µM. Further, the result with A375P was inactive. The molecule further yielded a GI50 at 24 h in data set [1] of over 30 µM.
`Cc1ccc(NC(=O)Nc2ccc(Cl)c(C(F)(F)F)c2)cc1NC(=O)c1cnoc1C` yielded a GI50 in the data set with U-937 of over 30 µM. The outcome in the data set on A375P was inactive. For the same molecule, the GI50 at 24 h in data set [1] is over 30 µM.
